The results in this text go back to US12433861B2, “Compositions and methods for treating reperfusion injury or hemorrhage after recanalization therapy” (GNT Pharma Co., Ltd., priority 2020, dated 2025).

For one data set, the system named is normal adult rats. Put plainly: rt-PA-induced hemorrhagic transformation model (intracortical rt-PA) in normal adult rats: Evans blue extravasation and infarct volume. The note with it: intracortical 0.66 mg/kg rt-PA. It is filed as in vivo, rat. As to the method:
Male Sprague-Dawley rats (340-380 g) were anesthetized with chloral hydrate (400 mg/kg, IP). The animals received intracortical injection of rt-PA (0.66 mg/kg; total […]) coordinated with 2.6 mm posterior, 5.4 mm lateral, and 3.8 mm from bregma at a flow rate of 0.5 μL/min using a infusion pump and Hamilton syringe. After the end of infusion, the syringe was removed from the cortex and nelonemdazK (30 mg/kg) was administrated through femoral vein for 5 min (3 mg/mL; 10 mL/kg). Six hours later, the rats were anesthetized and intravenously administrated with 4% Evans blue solution. Twenty minutes later, the rats were perfused transcardially first with saline and next with 4% paraformaldehyde. The brain was removed immediately and placed in the fixative for 15 min and scanned for evaluation of extravasation area of Evans blue to indirectly measure rt-PA-induced hemorrhagic transformation which occurs as a result of the breakdown of the blood-brain barrier (Jiang et al., 2018). To evaluate brain damage volume, the brain tissues were stored in 4% paraformaldehyde for 3 days and then processed overnight for paraffin embedding and cresyl violet staining. The extravasation area was measured by TINA imaging system (KAIST, Korea).
Animals received the intracortical injection of 0.66 mg/kg rt-PA that was followed by subsequent IV administration of vehicle or 30 mg/kg nelonemdazK 5 min later. Hemorrhagic transformation was investigated by analyzing extravasation of Evans blue dye at 6 h after rt-PA. (Upper panel) Compared to the sham control group, administration of rt-PA produced hemorrhagic transformation evident by extravasation of Evans blue, which was prevented by subsequent treatment with nelonemdazK.
Animals received sham operation or the intracortical injection of 0.66 mg/kg rt-PA, alone or with the subsequent intravenous administration of vehicle or 30 mg/kg nelonemdazK. Animals were sacrificed 6 h later and infarct volume was analyzed after staining brain sections with cresyl violet. (Upper panel) Photographs of brain sections stained with cresyl violet. Note brain lesion following the intracortical injections of rt-PA that was prevented by the administration of nelonemdazK. (Lower panel) Quantitation of infarct volume (Mean±S.E.M., n=3 for sham and 6 for rt-PA-treated groups) by summation of lesion areas in brain sections.

For data set [1], the system named is acute ischemic stroke patients. As to the kind of experiment: SONIC phase II trial: acute ischemic stroke patients receiving endovascular thrombectomy with or without rt-PA. The note with it: for ratio of mRS 0-2 or 0: vs placebo, potassium salt. It counts as in vivo, human. As to the method: The SONIC trial was to examine efficacy and safety of the intravenous infusions of nelonemdazK for acute ischemic stroke patients (adults≥19) receiving endovascular thrombectomy with or without rt-PA within 8 hours of onset as described (Hong et al., 2018). A total of 209 patients were enrolled for the SONIC trial and allocated randomly in a double-blinded manner to one of 3 groups for the intravenous infusions of test drugs as follows: (Group A) placebo [0.9% normal saline], (Group B) 2,750 mg nelonemdazK for 5 days [500 mg for 1st infusion followed by 2nd-10th infusions approximately at 12 h intervals (250 mg for each infusion)], and (Group C) 5,250 mg nelonemdazK for 5 days [750 mg for 1st infusion followed by 2nd-10th infusions approximately at 12 h intervals (500 mg for each)].
Acute ischemic stroke patients due to occlusion in carotid internal carotid artery system within 8 hours of onset were enrolled. Enrolled patients presented the National Institutes of Health Stroke Scale (NIHSS: range 0-42, with higher scores indicating greater stroke severity) scores and Alberta stroke program early CT score (ASPECTS: a 10-point quantitative topographic CT scan score used in patients with middle cerebral artery (MCA) stroke, with lower scores indicating larger cerebral infarction)≥6.
For statistical analysis, Cochran-Mantel-Haenszel (CMH) chi-square test was conducted to compare distribution and ratio of mRS scores for each group at 1, 4, and 12 weeks after drug treatment. Ordinal logistic regression was applied with multivariate analysis controlling confounding variables that may cause difference between the groups in participating institutions and baseline scores. In addition, generalized estimating equation (GEE) analysis was conducted to compare the changes between groups in mRS scores measured at 1, 4, and 12 weeks after drug treatment. For the analysis of the Barthel Index score and adverse events, chi-square test or Fisher exact test was conducted to compare difference between groups at 1, 4, and 12 weeks after drug treatment.
Acute ischemic stroke patients who presented the baseline NIHSS score≥8 and the mRS distribution of 2-5 were enrolled for the SONIC trial. Out of a total of 209 patients, 152 patients successfully completed procedures including drug treatment for 5 days and scheduled analysis over 12 weeks after drug treatment according to the clinical protocol approved by Korea Ministry of Food and Drug Safety. […] The shift analysis implies that administration of nelonemdazK reduces disability in acute stroke patients treated with endovascular thrombectomy.

“Also recorded” adds a separate entry of the source.

For the compound `O=C([O-])c1cc(NCc2c(F)c(F)c(C(F)(F)F)c(F)c2F)ccc1O.[K+]` [nelonemdazK, 2-Hydroxy-5-(2,3,5,6-tetrafluoro-4-trifluoromethylbenzylamino)benzoic acid potassium salt], the “hemorrhagic transformation evident by extravasation of Evans blue” value in the data set on normal adult rats (30 mg/kg IV 5 min later, 6 h after rt-PA) is “prevented”. The “brain lesion (cresyl violet)” value in the data set with normal adult rats (30 mg/kg IV, 6 h) is recorded as “prevented”. Moreover, the “volume of Evans blue extravasation” value in the data set with normal adult rats (30 mg/kg IV, 6 h, vs vehicle, p<0.05) is “significantly reduced”. The infarct volume entry with normal adult rats (30 mg/kg IV, 6 h after rt-PA, vs vehicle) is on record as “significantly reduced”. Also, the “ratio of mRS 0” value in data set [1] (1 week, high dose (5,250 mg) (placebo 2.04%, p=0.01)) was determined as 16.67%; in data set [1] (1 week, low dose (2,750 mg) (placebo 2.04%, p=0.04)), 12.96%; in data set [1] (4 weeks, high dose (5,250 mg) (placebo 6.12%, p=0.007)), 26.67%; in data set [1] (4 weeks, low dose (2,750 mg) (placebo 6.12%, p=0.04)), 20%; in data set [1] (12 weeks, high dose (5,250 mg) (placebo 8.16%, p=0.004)) it was 31.25%; in data set [1] (12 weeks, low dose (2,750 mg) (placebo 8.16%, p=0.03)), 23.64%. Further, the “ratio of patients with Barthel Index score higher than 90” value in data set [1] (12 weeks, high dose (placebo 41.86%, p<0.05)) was 64.44%; in data set [1] (12 weeks, low dose (placebo 41.86%)), 54.72%. Also, in data set [1] (IV up to 5,250 mg for 5 days, 12 weeks follow-up), the drug-related adverse events entry is listed as “no drug-related adverse events”. The “ratio of mRS 0-2 or 0” value in data set [1] (high dose (5,250 mg, N=48), over 12 weeks) was “further increased; also recorded: increases”; in data set [1] (low dose (2,750 mg, N=55), over 12 weeks), “further increased; also recorded: increases”. Besides, the “occurrence of adverse events and serious adverse events vs placebo” value in data set [1] (over 12 weeks) is reported as “no difference”. For the same compound, the mortality rate in data set [1] (over 12 weeks, high dose group (N=67) (placebo 8.57%)) was determined as 4.48%; in data set [1] (over 12 weeks, low dose group (N=71) (placebo 8.57%)), 4.23%.
